The values that follow come from patent US8263606B2 (Xenon Pharmaceuticals Inc., priority 2008, dated 2012).

The target of data set [1] is CYP3A4 (Homo sapiens, UniProt P08684). The data set is described as follows: Cytochrome P450 (CYP450) Inhibition Assay, CYP3A4 (Vivid fluorescence, BOMCC substrate). The conditions noted are these: human, P450 Baculosomes (recombinant CYP3A4), probe BOMCC (Vivid substrate).
The subject of data set [2] is sodium channel. The data set is described as follows: Guanidine influx assay (14C-guanidine radiotracer flux, in vitro). The conditions noted are these: guanidine influx assay using a known cell line that expresses a sodium channel; activity level class. In kind it is cell-based, human or rat. The procedure, abridged:
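IC50 derives from a four-parameter logistic fit of 14C-guanidine uptake, test agent serially half-diluted around a 1 μM midpoint. Flux was driven by aconitine in low-sodium HEPES/choline saline at ambient temperature, using endogenous or recombinant human or rat sodium-channel cell lines plated ~100,000/well for 20–24 h.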

Sequence of CYP3A4 (P08684 whole entry): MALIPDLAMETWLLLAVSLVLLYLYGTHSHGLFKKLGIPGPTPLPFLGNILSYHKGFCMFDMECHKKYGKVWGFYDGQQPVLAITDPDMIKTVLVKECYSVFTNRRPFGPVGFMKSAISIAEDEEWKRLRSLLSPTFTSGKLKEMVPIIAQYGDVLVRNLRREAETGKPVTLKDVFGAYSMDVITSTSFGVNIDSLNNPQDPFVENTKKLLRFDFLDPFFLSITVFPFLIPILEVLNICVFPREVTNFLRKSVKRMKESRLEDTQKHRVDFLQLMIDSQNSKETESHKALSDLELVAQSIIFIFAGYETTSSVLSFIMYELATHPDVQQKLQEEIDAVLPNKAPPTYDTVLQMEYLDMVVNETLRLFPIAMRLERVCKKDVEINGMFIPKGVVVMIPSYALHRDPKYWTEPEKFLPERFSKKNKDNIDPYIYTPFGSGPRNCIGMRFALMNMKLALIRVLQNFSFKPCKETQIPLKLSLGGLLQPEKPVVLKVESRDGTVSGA

For `COC(=O)c1ccc(CN2C(=O)C3(COc4cc5c(cc43)OCCO5)c3ccccc32)o1` (stereo not drawn) [Example 7.2, methyl 5-[(2′-oxo-2,3-dihydrospiro[furo[2,3-g][1,4]benzodioxine-8,3′-indol]-1′(2′H)-yl)methyl]furan-2-carboxylate], the melting point fell in the range of 88 to 92 °C. Besides, the inhibition at 10 µM in data set [1] was more than 50%. In data set [2], the half-inhibitory concentration (IC50) fell in the range of 1 to 100 nM.

Consider `O=C1N(C[C@H]2COCCO2)c2ccccc2C12COc1cc3c(cc12)OCO3` (stereo partly drawn) [Example 8, 1′-[(2S)-1,4-dioxan-2-ylmethyl]spiro[furo[2,3-f][1,3]benzodioxole-7,3′-indol]-2′(1′H)-one], for which the melting point was 147 to 149 °C. In addition, the inhibition at 10 µM in data set [1] is more than 50%. Also, the half-maximal inhibitory concentration (IC50) in data set [2] is 1 to 100 nM.

In turn, `O=C1N(C[C@H]2CCCO2)c2c(Cl)cccc2C12COc1cc3c(cc12)CCO3` (stereo partly drawn) [Example 8.1, 7′-chloro-1′-[(2R)-tetrahydrofuran-2-ylmethyl]-5,6-dihydrospiro[benzo[1,2-b:5,4-b′]difuran-3,3′-indol]-2′(1′H)-one] yielded a melting point of 192 to 193 °C. The inhibition at 10 µM in data set [1] is less than 50%. In addition, the IC50 in data set [2] is 100 to 1000 nM.

With `Cc1ccc(F)c2c1N(C[C@H]1CCCO1)C(=O)C21COc2cc3c(cc21)CCO3` (stereo partly drawn) [Example 8.3, 4′-fluoro-7′-methyl-1′-[(2R)-tetrahydrofuran-2-ylmethyl]-5,6-dihydrospiro[benzo[1,2-b:5,4-b′]difuran-3,3′-indol]-2′(1′H)-one], the melting point is 175 to 176 °C. Also, the inhibition at 10 µM in data set [1] is more than 50%. Moreover, in data set [2], the 50% inhibitory concentration (IC50) was 1 to 100 nM.

For `O=C1N(C[C@@H]2COCCO2)c2ccccc2[C@@]12COc1cc3c(cc12)OCCO3` [Example 8.5, (8R)-1′-[(2R)-1,4-dioxan-2-ylmethyl]-2,3-dihydrospiro[furo[2,3-g][1,4]benzodioxine-8,3′-indol]-2′(1′H)-one], the melting point is 198 to 199 °C. Also, the inhibition at 10 µM in data set [1] was less than 50%. For the same molecule, the IC50 in data set [2] was in the range of 1000 to 10000 nM.

Consider `O=C1N(C[C@H]2CCCO2)c2ccccc2C12COc1cc3c(cc12)OCC3` (stereo partly drawn) [Example 8.9, 1′-[(2R)-tetrahydrofuran-2-ylmethyl]-6,7-dihydrospiro[benzo[1,2-b:4,5-b′]difuran-3,3′-indol]-2′(1′H)-one], for which the melting point is 162 to 164 °C. The inhibition at 10 µM in data set [1] is less than 50%. For the same molecule, the half-inhibitory concentration (IC50) in data set [2] lay within 100 to 1000 nM.

The molecule `O=C1N(C[C@@H]2COCCO2)c2ccccc2C12COc1cc3c(cc12)OCC3` (stereo partly drawn) [Example 8.10, 1′-[(2R)-1,4-dioxan-2-ylmethyl]-6,7-dihydrospiro[benzo[1,2-b:4,5-b′]difuran-3,3′-indol]-2′(1′H)-one] came in with a melting point of 162 to 164 °C. Further, in data set [1], the inhibition at 10 µM was less than 50%. The half-maximal inhibitory concentration (IC50) in data set [2] is 100 to 1000 nM.

Consider `O=C1N(C[C@H]2CCCO2)c2ccccc2C12COc1cc3c(cc12)OCCCO3` (stereo partly drawn) [Example 8.11, 1′-[(2R)-tetrahydrofuran-2-ylmethyl]-3,4-dihydro-2H-spiro[furo[2,3-h][1,5]benzodioxepine-9,3′-indol]-2′(1′H)-one], for which the melting point was in the range of 134 to 138 °C. Further, in data set [1], the inhibition at 10 µM is less than 50%. The half-maximal inhibitory concentration (IC50) in data set [2] was in the range of 1000 to 10000 nM.

Regarding `Cn1c(=O)oc2cc3c(cc21)OCC31C(=O)N(C[C@H]2CCCO2)c2ccccc21` (stereo partly drawn) [Example 8.14, 3-methyl-1′-(((R)-tetrahydrofuran-2-yl)methyl)-2H-spiro[benzofuro[6,5-d]oxazole-7,3′-indoline]-2,2′(3H,6H)-dione], the melting point lay within 186 to 187 °C. In data set [1], the inhibition at 10 µM was less than 50%. Besides, the IC50 in data set [2] lay in the range of 1000 to 10000 nM.

`O=C1N(Cc2ccccn2)c2c(F)cccc2C12COc1cc3c(cc12)OCCO3` (stereo not drawn) [Example 8.15, 7′-fluoro-1′-(pyridin-2-ylmethyl)-3,7-dihydro-2H-spiro[benzofuro[5,6-b][1,4]dioxine-8,3′-indolin]-2′-one]: the melting point was 205 to 207 °C. For the same molecule, the inhibition at 10 µM in data set [1] was less than 50%. Besides, the IC50 in data set [2] was 1 to 100 nM.

Molecule `O=C1N(Cc2ncccc2C(F)(F)F)c2c(F)cccc2C12COc1cc3c(cc12)OCCO3` (stereo not drawn) [Example 8.16, 7′-fluoro-1-((3-(trifluoromethyl)pyridin-2-yl)methyl)-3,7-dihydro-2H-spiro[benzofuro[5,6-b][1,4]dioxine-8,3′-indolin]-2′-one] yielded a melting point of 241 to 243 °C. The inhibition at 10 µM in data set [1] was less than 50%. Moreover, the IC50 in data set [2] was 1 to 100 nM.

Turning to `O=C1N(Cc2ccccc2C(F)F)c2ccccc2C12COc1cc3c(cc12)OCCO3` (stereo not drawn) [Example 8.17], the melting point lay within 191 to 193 °C. For the same molecule, the inhibition at 10 µM in data set [1] is less than 50%. The IC50 in data set [2] is 1 to 100 nM.

Regarding `O=C1N(Cc2cncc(F)c2)c2ccccc2[C@]12COc1cc3c(cc12)OCCO3` [Example 8.19, (8S)-1′-[(5-fluoropyridin-3-yl)methyl]-2,3-dihydrospiro[furo[2,3-g][1,4]benzodioxine-8,3′-indol]-2′(1′H)-one], the melting point was in the range of 197 to 200 °C. For the same molecule, the inhibition at 10 µM in data set [1] is less than 50%. In addition, in data set [2], the IC50 lay in the range of 1 to 100 nM.

Molecule `COCCOCCN1C(=O)C2(COc3cc4c(cc32)CCO4)c2ccccc21` (stereo not drawn) [Example 9.1, 1′-[2-(2-methoxyethoxy)ethyl]-5,6-dihydrospiro[benzo[1,2-b:5,4-b′]difuran-3,3′-indol]-2′(1′H)-one] yielded a melting point of 105 to 107 °C. For the same molecule, in data set [1], the inhibition at 10 µM is more than 50%. For the same molecule, the IC50 in data set [2] was 100 to 1000 nM.

For `O=C1CC[C@@H](CN2C(=O)C3(COc4cc5c(cc43)CCO5)c3ccccc32)N1` (stereo partly drawn) [Example 9.2, 1′-{[(2S)-5-oxopyrrolidin-2-yl]methyl}-5,6-dihydrospiro[benzo[1,2-b:5,4-b′]difuran-3,3′-indol]-2′(1′H)-one], the melting point is 133 to 136 °C. Besides, the inhibition at 10 µM in data set [1] is less than 50%. Besides, the IC50 in data set [2] fell in the range of 1000 to 10000 nM.

`O=C1OCCN1CCN1C(=O)C2(COc3cc4c(cc32)CCO4)c2ccccc21` (stereo not drawn) [Example 9.3, 1′-[2-(2-oxo-1,3-oxazolidin-3-yl)ethyl]-5,6-dihydrospiro[benzo[1,2-b:5,4-b′]difuran-3,3′-indol]-2′(1′H)-one] showed a melting point of 185 to 186 °C. Besides, in data set [1], the inhibition at 10 µM is more than 50%. Also, in data set [2], the half-inhibitory concentration (IC50) lay within 1000 to 10000 nM.

Molecule `O=C1N(Cc2ccc(-c3ccccn3)cc2)c2ccccc2C12COc1cc3c(cc12)CCO3` (stereo not drawn) [Example 9.4, 1-(4-pyridin-2-ylbenzyl)-5,6-dihydrospiro[benzo[1,2-b:5,4-b′]difuran-3,3′-indol]-2′(1′H)-one] gave a melting point of 217 to 219 °C. The inhibition at 10 µM in data set [1] is less than 50%. Moreover, the half-maximal inhibitory concentration (IC50) in data set [2] fell in the range of 100 to 1000 nM.

Turning to `O=C1N(Cc2ncccn2)c2ccccc2C12COc1cc3c(cc12)CCO3` (stereo not drawn) [Example 9.5, 1′-(pyrimidin-2-ylmethyl)-5,6-dihydrospiro[benzo[1,2-b:5,4-b′]difuran-3,3′-indol]-2′(1′H)-one], the melting point lay within 203 to 205 °C. Moreover, the inhibition at 10 µM in data set [1] was less than 50%. For the same molecule, in data set [2], the concentration for half-maximal inhibition (IC50) is 1 to 100 nM.

Turning to `O=C1N(Cc2cnccn2)c2ccccc2C12COc1cc3c(cc12)CCO3` (stereo not drawn) [Example 9.7, 1′-(pyrazin-2-ylmethyl)-5,6-dihydrospiro[benzo[1,2-b:5,4-b′]difuran-3,3′-indol]-2′(1′H)-one], the melting point was in the range of 143 to 144 °C. Moreover, in data set [1], the inhibition at 10 µM is less than 50%. Also, in data set [2], the concentration for half-maximal inhibition (IC50) is 1 to 100 nM.

On to `O=C1N(Cc2cc3cccc(F)c3o2)c2ccccc2C12COc1cc3c(cc12)CCO3` (stereo not drawn) [Example 9.8, 1′-[(7-fluoro-1-benzofuran-2-yl)methyl]-5,6-dihydrospiro[benzo[1,2-b:5,4-b′]difuran-3,3′-indol]-2′(1′H)-one], for which the melting point is 192 to 193 °C. Besides, the inhibition at 10 µM in data set [1] was more than 50%. In data set [2], the concentration for half-maximal inhibition (IC50) is 1 to 100 nM.

`O=C1N(Cc2cccnn2)c2ccccc2C12COc1cc3c(cc12)CCO3` (stereo not drawn) [Example 9.9, 1′-(pyridazin-3-ylmethyl)-5,6-dihydrospiro[benzo[1,2-b:5,4-b′]difuran-3,3′-indol]-2′(1′H)-one] yielded a melting point of 81 to 82 °C. For the same molecule, in data set [1], the inhibition at 10 µM was less than 50%. Moreover, the IC50 in data set [2] was 100 to 1000 nM.

In turn, `O=C1NCC(CN2C(=O)C3(COc4cc5c(cc43)CCO5)c3ccccc32)O1` (stereo not drawn) [Example 9.10, 1′-[(2-oxo-1,3-oxazolidin-5-yl)methyl]-5,6-dihydrospiro[benzo[1,2-b:5,4-b′]difuran-3,3′-indol]-2′(1′H)-one] registered a melting point of 197 to 198 °C. Moreover, in data set [1], the inhibition at 10 µM was less than 50%. Also, the IC50 in data set [2] lay in the range of 1000 to 10000 nM.

With `O=C1N(Cc2cccc(OCc3ccccc3)c2)c2ccccc2C12COc1cc3c(cc12)CCO3` (stereo not drawn) [Example 9.11, 1′-[3-(benzyloxy)benzyl]-5,6-dihydrospiro[benzo[1,2-b:5,4-b′]difuran-3,3′-indol]-2′(1′H)-one], the melting point was 66 to 68 °C. Besides, in data set [1], the inhibition at 10 µM is less than 50%. In addition, in data set [2], the IC50 was 100 to 1000 nM.

As to `Cn1c(CN2C(=O)C3(COc4cc5c(cc43)CCO5)c3ccccc32)nc2ccccc21` (stereo not drawn) [Example 9.12, 1′-[(1-methyl-1H-benzimidazol-2-yl)methyl]-5,6-dihydrospiro[benzo[1,2-b:5,4-b′]difuran-3,3′-indol]-2′(1′H)-one], the melting point was 244 to 246 °C. For the same molecule, the inhibition at 10 µM in data set [1] is more than 50%. Also, the IC50 in data set [2] was in the range of 100 to 1000 nM.

As to `O=C1N(Cn2nc3ccccc3n2)c2ccccc2C12COc1cc3c(cc12)CCO3` (stereo not drawn) [Example 9.13, 1′-(2H-benzotriazol-2-ylmethyl)-5,6-dihydrospiro[benzo[1,2-b:5,4-b′]difuran-3,3′-indol]-2′(1′H)-one], the melting point lay in the range of 102 to 105 °C. For the same molecule, the inhibition at 10 µM in data set [1] was more than 50%. The IC50 in data set [2] lay in the range of 1 to 100 nM.

What is called inhibition is the change of the read-out against control, counted positive when it falls. For orientation: melting point means the temperature of the solid-liquid transition. Usually IC50 stands for the midpoint of a concentration-inhibition curve.
